Test results taken from US6372793B1, “Method for treatment of a neurological disease characterized by impaired neuromodulator function” (Florida Agricultural & Mechanical University, priority 1999, dated 2002).
Where a name gives a salt, the structure may show the parent alone.

Columns and labels:
[1] = tested on: rat brain membranes; assay: SAM-dependent methylation of FC analogs by rat brain membranes; assay type: biochemical; conditions: 60 min; for methylation by rat nerve cell membranes in the presence of [3H-methyl]SAM: 200 mmM analog, 37° C.
Procedure: AFC, FTP and FTS (200 mmM) were each incubated for 60 min with rat brain membranes (240 mmg of protein) at 37° C. in 100 mM Tris-HCl, pH 7.4 containing SAM (10 mmM, 1.3 mmCi [^3H-methyl]-SAM), 5 mM MgSO4 and 0.1 M NaCl in a total incubation volume of 400 mml. The reactions were stopped with 5% TFA and chilled on ice. Hexane (400 mml) was added and the contents of the tubes mixed thoroughly. This was followed by centrifugation at 20,000 g for 2 min. The upper hexane layer was removed and 250 mml analyzed by reversed-phase HPLC on a Whatman column (C18, 4.6×150 mm). Methylated FC analogs were eluted from the column at a rate of 1 ml/min with a 0 to 100% gradient of acetonitrile in 0.1% TFA from the 3rd to the 15th min of each run. This composition was maintained for a further 2 min before re-equilibration of the column for the next sample. Detection was conducted with an online radiochromatographic detection system (INUS β-ram, Tampa, Fla.).

[2] = tested on: rats; assay: Effect of farnesylcysteine analogs on the movements of rats (Animal Activity Monitor); assay type: in vivo, rat; conditions: 1 mmmol icv alone or in combination with 1 mmmol of SAM
Procedure: Cannulated rats were injected (icv) with AFC or FTP (1 mmmol, 5 mml) in combination with PBS or 1 mmmol of SAM, injected similarly 5 min after injection of the FC analogs. Their movements were measured in an Animal Activity Monitor (AccuScan Electronics, Inc., Columbus, Ohio) and compared to those of control animals that received PBS.

[3] = tested on: 6-hydroxydopamine-lesioned rats; assay: Amphetamine-induced ipsiversive rotation of 6-hydroxydopamine-lesioned rats (RotoScan Rotometer); assay type: in vivo, rat
[4] = tested on: SAM-induced tremors; assay: Effect of farnesylcysteine/prenylcysteine analogs on SAM-induced tremors and PD-like symptoms; assay type: in vivo, rat; conditions: 20 min
Procedure: (§1) Rats were cannulated for subsequent injections into the lateral ventricle as previously described (Charlton and Mack, 1994). Briefly, each rat was anesthetized with 400 mg/kg of chloral hydrate. A stainless steel guide cannula was stereotaxically placed 1.5 mm lateral and 0.6 mm caudal to the Bregma with the tip extended to the inner surface of the cranium, above the dura mater. At least 2 days following cannulation, injections were made through the cannula into the lateral ventricle with a 26 gauge insertion cannula, pre-measured to descend 5 mm from the surface of the skull into the lateral ventricle. Each injected rat was put in a cage which was then placed on the sensor assembly of the Tremor-Scan Monitor. The recording parameters were set according to the manufacturer's instructions by adjusting the Gain on the instrument to 4 which insured that most of the signals with large or small amplitudes remained within the detection limit or not reduced to the baseline respectively, as viewed on the computer monitoring screen. The noise that could interfere with the SAM-induced tremors is usually of low amplitude and was reduced to baseline levels by this gain setting. This setting was used for all subsequent recording and storage of the vibration signals due to tremor-like activities of the
AFC, FTP and FTS were each suspended in PBS and dissolved by adjusting the pH to 7.4 with NaOH followed by the addition of more PBS to make 0.2 mmol/ml solutions. PBS or each compound, dissolved in 5 mml of solution, was injected into the lateral ventricle of cannulated rats 5 min prior to SAM injections. SAM (1 mmmol in 5 mml of PBS) was injected and the movements recorded over a 20 min period as described above.

[5] = tested on: SAM-induced tremors; assay: Effect of L-DOPA, SAH and NADA on SAM-induced tremors; assay type: in vivo, rat; conditions: for number of tremors / total duration of tremors: 20 min; for effect on the SAM-induced PD-like symptoms: icv before SAM
Procedure: as §1
Cannulated rats were injected either with PBS (5 mml), L-DOPA (1.5 mmmol), SAH (1.0 mmmol) or NADA (1.0 mmmol) followed by an injection of either 0.75 or 1.0 mmmol of SAM. Each compound was dissolved or finely suspended in PBS. They were then monitored for tremors on the Tremor Monitor for a period of 20 min.

[6] = tested on: rat nerve cell membranes; assay: In vitro association of [3H-methyl]SAM or 3H-MPP+ with rat nerve cell membranes; assay type: binding; conditions: for effect on association of [3H-methyl]SAM radioactivity with membranes: 100 mmM non-radioactive compound in the incubation mixture; for effect on 3H-MPP+ association with membranes: non-radioactive competitor
Procedure: Rat brain (1.76 g) was homogenized in 20 ml of 50 mM Tris-HCl, pH 7.4 containing 2.5 mM EDTA and 0.02% bovine serum albumin and centrifuged at 900×g for 10 min. The supernatant was transferred and the pellet re-suspended in the same buffer and centrifuged. The 900×g supernatants were combined and centrifuged at 20,000×g for 40 min. The supernatant was removed and the pellet resuspended in 5 ml of buffer, aliquoted and frozen at −70° C. until needed.
To understand whether the behavioral effects of SAM were due to interactions with cellular macromecules, [^3H-methyl]SAM (0.2 mmCi) was incubated with rat nerve cell membranes (30 mmg of protein) at 37° C. At the appropriate incubation periods, the reaction tubes were removed and centrifuged (13,000 rpm, MSE Centaur) for 10 min. The supernatant was discarded and the pellet suspended in scintillation fluid and their total radioactive content determined by scintillation counting.

[7] = tested on: rats; assay: Tremors and PD-like symptoms induced by icv SAM, recorded on the Tremor-Scan Monitor; assay type: in vivo, rat
Procedure: as §1
The Tremor Monitor software, which allows for the determination of 1) the signal amplitude, 2) the number of cycles in each activity or episode, 3) the number of activities and 4) the duration of each activity or episode, aided in the storage and subsequent retrieval and analysis of the recorded activity profiles. Analysis of the stored data was achieved by altering the minimum and maximum frequency, amplitude and number of cycles to reflect the unique properties of each kind of movement and thus delineate the SAM-induced tremors from non-tremor activity signals.
The dose-dependent effects of SAM was also determined in cannulated rats injected with 0 (PBS), 0.5, 0.75 and 1.0 mmmol of SAM. Their tremor activities were recorded on the Tremor-Scan monitor for 20 min.
To determine the duration and magnitude of SAM-induced tremors, groups of cannulated rats were injected either with 1 mmmol of SAM or with 5 mml of PBS, as control. The animals were monitored on the Tremor-Scan Monitor for a duration of 2 h starting immediately after the injections.

[8] = 1 mmmol FC analog icv 5 min before 1 mmmol SAM
[9] = 1.5 mmmol L-DOPA icv before 0.75 mmmol SAM, or SAM alone
[10] = 1 mmmol NADA or SAH icv followed by 1 mmmol SAM, or SAM alone
[11] = 1 mmmol SAM icv, first 10 min interval of 2 h recording
[12] = 20 min, re-analysis with minimum amplitude 20 and minimum cycles per activity 20
[13] = SAM icv, 20 min recording, frequency window 8 to 20, minimum amplitude 10, minimum 10 cycles
[14] = raw data, 20 min monitoring, minimum amplitude 10, minimum cycles 10
[15] = 0 mmmol FC analog followed by 1 mmmol SAM

Structure (SMILES): CC(=O)N[C@@H](CSC/C=C(\C)CC/C=C(\C)CCC=C(C)C)C(=O)O [AFC, N-acetyl-S-farnesyl-L-cysteine]
- methylation by rat nerve cell membranes in the presence of [3H-methyl]SAM [1]: avid methyl acceptors
- movement activity [2]: significantly higher degree of movement activity
- net rotations ([3]; AFC alone, no amphetamine): only few net rotations
- increase of amphetamine-induced rotation ([3]; amphetamine ip plus AFC 1 mmmol icv, versus amphetamine alone): 2 fold
- ipsiversive rotations within 90 min ([3]; amphetamine ip plus AFC 1 mmmol into the left lateral ventricle): 830±110
- ipsiversive rotations within 90 min ([3]; amphetamine ip plus AFC 1 mmmol into the right lateral ventricle): 790±160
- tremors observed ([4]; 0.5 mmmol FC analog icv 5 min before 1 mmmol SAM): significant reduction of tremors
- tremors observed [4, 8]: no tremors

Structure (SMILES): CC(C)=CCCC(C)=CCCC(C)=CCSc1ccccc1C(=O)O [FTS, farnesylthiosalicylic acid]
- methylation by rat nerve cell membranes in the presence of [3H-methyl]SAM [1]: never methylated
- inhibition of the methylation of AFC and FTP ([1]; indicated concentrations of FTS): dose-dependently inhibited
- tremors observed [4, 8]: significantly fewer tremors

Structure (SMILES): N[C@@H](Cc1ccc(O)c(O)c1)C(=O)O [L-DOPA, L-dihydroxyphenylalanine]
- number of tremors [5, 9]: 25±4
- total duration of tremors [5, 9]: 111 ± 22 s
- effect on the SAM-induced PD-like symptoms [5]: little or no effect

Structure (SMILES): C[n+]1ccc(-c2ccccc2)cc1 [MPP^+, 1-methyl-4-phenylpyridinium ion]
- effect on association of [3H-methyl]SAM radioactivity with membranes [6]: No effect

Structure (SMILES): CC(=O)NCCc1ccc(O)c(O)c1 [NADA, N-acetyldopamine]
- total duration of tremors [5, 10]: 200±43
- effect on the SAM-induced PD-like symptoms [5]: little or no effect

Structure (SMILES): Nc1ncnc2c1ncn2[C@@H]1O[C@H](CSCC[C@H](N)C(=O)O)[C@@H](O)[C@H]1O [SAH, S-adenosyl-L-homocysteine]
- radioactivity associated with the membranes in presence of competitor ([6]; [3H-methyl]SAM, 100 mmM competitor in the incubation mixture): about 2000 DPM
- effect on 3H-MPP+ association with membranes [6]: little affected
- total duration of tremors [5, 10]: 212±52
- effect on the SAM-induced PD-like symptoms [5]: little or no effect

Structure (SMILES): C[S+](CC[C@H](N)C(=O)O)C[C@H]1O[C@@H](n2cnc3c(N)ncnc32)[C@H](O)[C@@H]1O (stereo partly drawn) [SAM, S-Adenosyl-L-methionine]
- number of tremors ([7]; 0.5 mmmol SAM icv, 20 min): minimal
- total duration of tremors ([7]; 0.5 mmmol SAM icv, 20 min): minimal
- increase in number of tremors ([7]; 0.75 mmmol SAM icv, 20 min): 7 fold
- increase in total duration of tremors compared to the 0.5 mmmol injection ([7]; 0.75 mmmol SAM icv, 20 min): 9 fold
- rate of tremor episodes during the first 10 min ([7]; 1 mmmol SAM icv): about 2 episodes per min
- time that abnormal posture, hypokinesia and rigidity remained ([7]; 1 mmmol SAM icv): about 90 min
- increase in number of tremors ([7]; 1 mmmol SAM icv, 20 min): 8 fold
- increase in total duration of tremors compared to the 0.5 mmmol injection ([7]; 1 mmmol SAM icv, 20 min): 12 fold
- number of tremors in the first 10 min interval [7, 11]: 19±4
- total duration of tremors within the first 10 min [7, 11]: 120 ± 20 s
- number of tremor activities [7, 12]: 70±8
- total duration of tremor activity [7, 12]: 360 ± 18 s
- average amplitude [7, 13]: 42.3±5
- frequency [7, 13]: 12±0.1
- number of cycles (waves) per activity [7, 13]: 54±6
- time to onset of tremors, hypokinesia, rigidity and abnormal posture after injection ([7]; SAM into the lateral ventricle): 0.5 to 2 min
- number of activities [7, 14]: 92±12
- total duration of tremors [7, 14]: 470 ± 50 s
- change of membrane-associated radioactivity after addition of non-radioactive compound (reversibility) ([6]; 100 mmM non-radioactive SAM added after 2 h incubation with [3H-methyl]SAM): neither increased nor decreased
- effect on association of [3H-methyl]SAM radioactivity with membranes [6]: inhibited
- effect on 3H-MPP+ association with membranes [6]: little affected
- total duration of tremors [5, 10]: 273±128
- number of tremors [5, 9]: 33±7
- total duration of tremors [5, 9]: 170 ± 34 s
- duration of tremors [4, 15]: 310 ± 70 s
- number of tremors [4, 15]: 46±10

Structure (SMILES): C[S+](CC[C@H](N)C(=O)[O-])C[C@H]1O[C@@H](n2cnc3c(N)ncnc32)[C@H](O)[C@@H]1O (stereo partly drawn) [[^3H-methyl]SAM, S-[methyl-^3H]-SAM]
- radioactivity associated with the membranes ([6]; [3H-methyl]SAM incubated with rat nerve cell membrane preparation, no competitor): about 6000 DPM

Structure (SMILES): C[C@H](N)Cc1ccccc1 [amphetamine, d-amphetamine sulfate]
- ipsiversive rotations within 90 min ([3]; amphetamine ip (5 mg/kg) alone, 7 days after intrastriatal 6-OHDA): 390±130
